Experimental findings from patent publication US20180243297A1, “Amino pyrazine derivatives as phosphatidylinositol 3-kinase inhibitors” (Novartis AG, priority 2014, published 2018) are described below.

The target of data set [1] is T1, PI 3-kinase delta (Rat-1_PI3Kdelta cells, Myr-HA-hp110 delta) (Homo sapiens, UniProt O00329).
T1 construct: expressed in transfected cells
T1 sequence (O00329 1-1044): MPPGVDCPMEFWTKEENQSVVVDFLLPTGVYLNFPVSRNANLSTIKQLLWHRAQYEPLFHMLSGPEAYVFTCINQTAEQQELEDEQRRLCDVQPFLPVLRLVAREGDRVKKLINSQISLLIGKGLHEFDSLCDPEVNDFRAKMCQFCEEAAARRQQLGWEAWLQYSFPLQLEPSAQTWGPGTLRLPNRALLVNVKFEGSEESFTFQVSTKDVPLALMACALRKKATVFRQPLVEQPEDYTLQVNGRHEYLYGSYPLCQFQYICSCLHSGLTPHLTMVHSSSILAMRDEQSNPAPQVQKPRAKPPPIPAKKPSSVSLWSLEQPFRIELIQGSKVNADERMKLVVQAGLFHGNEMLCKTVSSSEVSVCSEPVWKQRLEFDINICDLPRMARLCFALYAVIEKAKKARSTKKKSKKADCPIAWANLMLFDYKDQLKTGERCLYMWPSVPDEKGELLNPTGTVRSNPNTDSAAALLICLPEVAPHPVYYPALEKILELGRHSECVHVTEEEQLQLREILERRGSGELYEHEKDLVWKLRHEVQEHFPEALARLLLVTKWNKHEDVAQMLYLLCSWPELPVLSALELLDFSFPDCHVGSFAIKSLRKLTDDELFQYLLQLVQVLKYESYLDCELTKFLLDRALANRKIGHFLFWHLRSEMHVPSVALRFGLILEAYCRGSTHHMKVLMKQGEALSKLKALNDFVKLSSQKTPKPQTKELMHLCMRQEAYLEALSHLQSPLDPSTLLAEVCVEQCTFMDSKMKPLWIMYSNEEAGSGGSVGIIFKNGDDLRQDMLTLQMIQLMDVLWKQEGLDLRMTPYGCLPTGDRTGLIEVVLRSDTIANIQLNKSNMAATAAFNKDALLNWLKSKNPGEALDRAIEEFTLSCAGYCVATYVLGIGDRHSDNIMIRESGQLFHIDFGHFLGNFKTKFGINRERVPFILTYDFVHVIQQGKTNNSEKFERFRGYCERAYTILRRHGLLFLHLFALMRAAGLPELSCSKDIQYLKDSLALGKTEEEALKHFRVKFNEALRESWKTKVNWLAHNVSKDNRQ
The experiment in a line: Cellular p-Akt (S473) assay, Surefire format, assay J1. Type of data set: cell-based. The conditions noted are these: non-asterisked data: version J1 (Surefire format); read-out: Assay J PI3Kδ IC50.
Source text: (§1) Cellular Assays for PI 3-Kinase Alpha (H1), Beta (I1) and Delta (J1): Surefire Format
(§2) AlphaScreen (Amplified Luminescent Proximity Homogeneous Assay, ALPHA, Perkin Elmer) is a non-radioactive bead-based proximity assay technology to study biomolecular interactions in a homogenous microtiter plate format. The brand name SureFire denotes AlphaScreen assays that are adapted to quantify the phosphorylation of endogenous cellular proteins in cell lysates, by using matched antibody pairs, which consist of an anti-phospho-kinase and an anti-kinase antibody. The assay allows characterization of kinase signaling in cells as well as measurement of kinase inhibitor effects.
(§3) Using Rat-1 cells stably expressing myr-HA-tagged versions of the human PI3Kdelta, PI3Kalpha, or PI3Kbeta p110 catalytic subunit isoforms, the assay was developed as a two-plate protocol in a 384-well format.
(§4) For compound testing, the cells were seeded at a density of 4000 (Rat-1_PI3Kdelta), 7500 (Rat-1_PI3Kalpha), or 6200 (Rat-1_PI3Kbeta) cells in 20 μl complete growth medium into cell culture treated 384-well plates and were grown at 37° C./5% CO2/90% humidity for 24 h. Shortly before compound transfer, the complete medium was removed, 30 μl assay buffer (DMEM high glucose, 1×MEM NEAA, 10 mM HEPES, 2 mM L-glutamine, 0.1% (w/v) BSA) was added and 10 μl of the compound predilutions were transferred to the cells.

The target in data set [2] is T2, PI 3-kinase beta (Rat-1_PI3Kbeta cells, Myr-HA-hp110 beta) (Homo sapiens, UniProt P42338).
T2 construct: expressed in transfected cells
The experiment in a line: Cellular p-Akt (S473) assay, Surefire format, assay I1. The conditions noted are these: non-asterisked data: version I1 (Surefire format); read-out: Assay I PI3Kβ IC50. The class given is cell-based.
Procedure: The assay allows characterization of kinase signaling in cells as well as measurement of kinase inhibitor effects.
as §3, §4
(§5) All fits were performed with the program XLfit4 (ID Business Solutions, Guildford, UK).

Data set [3] concerns the target T3, PI 3-kinase alpha (Rat-1_PI3Kalpha cells, Myr-HA-hp110 alpha) (Homo sapiens, UniProt P42336).
T3 construct: expressed in transfected cells
Briefly: Cellular p-Akt (S473) assay, Surefire format, assay H1. The class given is cell-based. The conditions noted are these: non-asterisked data: version H1 (Surefire format); read-out: Assay H PI3Kα IC50.
Source text: as §1, §2, §3, §4

The next data set concerns the target Vps34 (Homo sapiens, UniProt Q8NEB9). Briefly: Kinase Glo luminescent kinase assay (Kglo), assay C. Type of data set: biochemical. In general terms: Kinase-Glo reads ATP consumption through a luciferase reaction.
Another data set concerns the target mTOR (Homo sapiens, UniProt P42345). The experiment in a line: Lanthascreen kinase binding assay, assay G. In general terms: Time-resolved FRET reads energy transfer from a long-lived donor to a nearby acceptor.
The next data set deals with PI 3-kinase gamma (Homo sapiens, UniProt P48736). Briefly: TR-FRET Adapta assay, assay E. Type of data set: biochemical.
For data set [4], the target named is T4, PI 3-kinase gamma (U937 cells, MIP1α-stimulated AKT phosphorylation) (Homo sapiens, UniProt P48736).
T4 construct: endogenous in cells; host or cells: U937 human monocyte cell line
Briefly: Cellular U937 AKT assay (HTRF), assay K2. The settings on record: HTRF format, read-out: Assay K2 PI3Kγ IC50. The class given is cell-based.
Procedure: (§6) In assays K1 and K2, the compounds were tested for their ability to inhibit the production of phosphorylated AKT (Protein Kinase B) generated in a PI 3-kinase gamma isoform-dependent process in a U937 human cell line.
Cellular U937 AKT Assay for PI 3-Kinase Gamma (K2)
U937 cells are split every 3-4 days: 5×10^6 cells/flask (175 cm^2) in 40 ml.
Semi-automated preparation of cell lysates: Cells were resuspended in HBSS, seeded (200′000 cells/well/60 μl) into a 384-well plate and incubated in a humidified 37° C., 5% CO2 incubator for 1.5 hours. The compounds were diluted with HBSS and 40 μl were added to the starved cells (except for wells 24 I-P). […] The cells were then incubated for 30 minutes at 37° C. and 5% CO2. Stimulation occurred during 3 minutes by addition of 20 μl MIP1α (final 10 ng/ml, diluted in HBSS) in the incubator. Wells 24 A-H were only stimulated with HBSS.
The stimulation was then stopped by putting the cell plates on ice (filled with cold water). The cells were then centrifuged at 1200 rpm and 4° C. for 3 minutes.
80 μl of supernatant was removed. The cells were again centrifuged at 1200 rpm and 4° C. for 3 minutes. The supernatant was then removed by turning plates upside down and 30 μl of lysis buffer were added. The plate was incubated at room temperature for 30 minutes under shaking. 16 μl were then transferred to a ProxiPlate Plus 384-well. […]

The target of another data set is PI 3-kinase alpha (Homo sapiens, UniProt P42336). Briefly: Kinase Glo luminescent kinase assay (Kglo), assay A. The class given is biochemical. The settings on record: read-out: Assay A PI3Kα IC50.
For a further data set, the target named is PI 3-kinase delta (Homo sapiens, UniProt O00329). The experiment in a line: TR-FRET Adapta assay, assay F.
A short description of data set [5]: Microsomal clearance assay, assay M. Type of data set: in vitro ADME. The conditions noted are these: intrinsic clearance in rat liver microsomes.
Procedure: The experiments were performed in 96-well glass plates at 37° C. on an automated Tecan EVO platform. Test compounds at a concentration of 10 mM in pure DMSO were diluted 1:1000 in water to 10 μM. […] Reactions were initiated by the addition of 150 μL of a cofactor solution containing 2 mM NADPH.
Data set [6] deals with IL-8-induced neutrophil shape change in human whole blood. Briefly: Whole blood neutrophil shape change assay, assay L. Type of data set: cell-based. The conditions noted are these: read-out: Assay L WBSC IC50.
Procedure: Whole Blood Neutrophil Shape Change Assay (L)
IL-8 was made up to 2 μM stocks in 0.1% bovine serum albumin/PBS and stored at −80° C. On the day IL-8 was diluted in PBS (phosphate buffered saline) 10 minutes before use. IL-8 was used at final concentration of 2 nM and a concentration range from 0.003 to 200 nM for the donor dose response curve.
Assay fixative solution was prepared fresh each day from 10× concentrated CellFlX™ solution diluted 1:10 in sterile distilled water and then 1:4 with PBS. Assay fixative solution was kept on ice prior to use.
A 10× lysis buffer was prepared in advance by dissolving 20.75 g NH4Cl and 2.5 g KHCO3 in 250 ml sterile H2O. This 10× lysis buffer was filtered under sterile conditions and stored for up to two weeks at 4° C. On the day a 1× lysis solution was prepared with sterile distilled H2O and kept on ice prior to use.
The test compounds were prepared as 10 mM stock solutions in 100% DMSO and were stored at 4° C. Once in use for an assay 10 mM stock compounds were thawed and stored at RT protected from light. Compound dilutions were prepared fresh on the day. The first series of dilutions in 100% DMSO were done first thing in the morning. Only once blood had been collected and arrived in laboratory was the next set of dilutions into PBS carried out (1:10 PBS, 10% DMSO). This limited the exposure of diluted compound to plastic and made sure the exposure timing was consistent between assays.
Compound dilutions in 100% DMSO were prepared as described previously. Human whole blood was collected in K2 EDTA Vacutainers. Once blood was in the laboratory, compound dilutions into PBS were carried out as described previously and depicted in Table 1.
The outer wells of the deep well assay plate were filled with 1200 μl of sterile distilled H2O in an effort to limit edge effects (rows A1-H1, A1-A12, A12-H12).
An IL-8 dose response was determined for each blood donor examined, to monitor the donor response to IL-8. […] In addition the assay window without DMSO was also assessed each day. […]
Data set [7] addresses T4, PI 3-kinase gamma (U937 cells, MIP1α-stimulated AKT phosphorylation). Briefly: Cellular U937 AKT assay (MSD), assay K1. Type of data set: cell-based. The settings on record: MSD format, read-out: Assay K1 PI3Kγ IC50.
Procedure: as §6
Cellular U937 AKT Assay for PI 3-Kinase Gamma (K1)
Cells are incubated at 37° C., 5% CO2.
Before beginning the cell manipulations described below, the MSD (Meso Scale Discovery) assay plate is blocked by addition of 150 μl/well blocking buffer supplied and incubated with shaking for a minimum of one hour at room temperature. All steps of the assay must be performed quickly, with accurately timed incubation periods and observing temperature controls where indicated.
falcon tube, counted and centrifuged for eight minutes at 300 g at room temperature. Supernatant is aspirated, the cell pellet resuspended and washed once in HBSS (Hank's Balanced Salt Solution) by centrifugation for eight minutes at 300 g at room temperature. […] Assay plates are incubated for 1.5 hours at 37° C., 5% CO2 to allow background AKT phosphorylation to reduce before the compound stimulation step.
Compound titrations are prepared in a fresh flat-bottomed, 96-well plate, by 10-fold serial dilution of 40 μM into HBSS 0.8% DMSO; pipette tips are replaced after each dilution is made. Compound concentrations at this stage are 4-times the final concentration required in the assay plate. Cells are stimulated with compound or HBSS 0.8% DMSO by direct transfer of 50 μl/well from the compound dilution plate. The assay plate containing compound-treated cells is then incubated for 30 minutes at 37° C. A standard plate layout is used for all experiments.
Compound-treated cells, in addition to positive control wells (“max MIP1α”), are stimulated with 50 μL per well of 40 ng/ml MIP1α (R&D Systems catalogue number 270-LD, lyophilized stock reconstituted to 50 μg/ml with PBS 0.1% BSA). Negative control wells (“min HBSS”), are stimulated with 50 μl/well of HBSS in the absence of MIP1α. Final compound concentrations are now diluted 4-fold giving a top concentration of 10 μM; where added, the final concentration of MIP1α is 10 ng/ml. Cells are incubated with MIP1α for 3 minutes, at 37° C., 5% CO2. After the three minute stimulation period, the assay plate is kept ice cold at all times. Assay plates are centrifuged for 2 minutes at 300 g, 4° C. and supernatant is removed by gently inverting, and then blotting the plate on tissue. Cells are then washed by gentle addition of 150 μL/well of ice cold HBSS and centrifugation at 300 g, for 5 minutes at 4° C. Supernatant is
aspirated and the plate blotted as described above. […] Plates are incubated on ice for 20 minutes before centrifugation at 841 g for 5 minutes, 4° C.
Block buffer is aspirated from the MSD plate, and the plate washed four times with 300 μl/well Tris wash buffer. 25 μL of cell lysate is then transferred from the assay plate to the washed MSD plate which is sealed and incubated at room temperature for one hour with shaking. […] The plate is washed four times with 300 μl per well of Tris wash buffer and 150 μl per well of Read buffer is added, taking care to avoid the introduction of bubbles. The plate is immediately read using an MSD SECTOR Imager 6000. Results are exported in Excel and the percentage of phosphorylated AKT is calculated using the equation: % Phosphoprotein=((2*Phospho signal)/(Phospho signal+Total signal))*100. Compound-mediated inhibition of AKT phosphorylation is analysed using Prizm V Graphpad software.

Like-named read-outs stand apart in the source and are kept apart here.

T3 sequence (P42336 whole entry): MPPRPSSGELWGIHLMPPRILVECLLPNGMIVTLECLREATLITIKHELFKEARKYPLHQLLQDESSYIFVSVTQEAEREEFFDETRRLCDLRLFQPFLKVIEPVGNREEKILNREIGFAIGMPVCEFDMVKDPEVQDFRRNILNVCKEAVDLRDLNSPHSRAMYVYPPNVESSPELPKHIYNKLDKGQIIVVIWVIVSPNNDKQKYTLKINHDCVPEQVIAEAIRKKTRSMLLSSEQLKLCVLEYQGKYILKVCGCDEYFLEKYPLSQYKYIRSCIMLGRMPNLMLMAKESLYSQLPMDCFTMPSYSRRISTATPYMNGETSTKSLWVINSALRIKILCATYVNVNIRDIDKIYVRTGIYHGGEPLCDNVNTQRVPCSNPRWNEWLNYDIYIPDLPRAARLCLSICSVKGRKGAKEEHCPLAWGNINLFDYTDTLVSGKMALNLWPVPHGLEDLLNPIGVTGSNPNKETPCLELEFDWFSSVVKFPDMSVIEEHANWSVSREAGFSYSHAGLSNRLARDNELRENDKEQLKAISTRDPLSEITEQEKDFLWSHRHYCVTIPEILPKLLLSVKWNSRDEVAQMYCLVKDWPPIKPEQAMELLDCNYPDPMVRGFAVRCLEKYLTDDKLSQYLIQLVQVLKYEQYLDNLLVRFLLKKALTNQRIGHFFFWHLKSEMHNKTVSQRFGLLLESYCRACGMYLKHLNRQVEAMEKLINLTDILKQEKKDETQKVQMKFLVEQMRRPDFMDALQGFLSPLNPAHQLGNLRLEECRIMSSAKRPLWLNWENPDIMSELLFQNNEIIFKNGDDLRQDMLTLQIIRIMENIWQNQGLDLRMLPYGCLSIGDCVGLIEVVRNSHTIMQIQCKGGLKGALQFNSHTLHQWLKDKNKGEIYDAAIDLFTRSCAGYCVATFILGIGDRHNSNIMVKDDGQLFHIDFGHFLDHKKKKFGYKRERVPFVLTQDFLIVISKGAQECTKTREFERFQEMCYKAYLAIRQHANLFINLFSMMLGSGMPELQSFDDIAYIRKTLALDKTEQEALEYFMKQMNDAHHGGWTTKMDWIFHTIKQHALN
T2 sequence (P42338 whole entry): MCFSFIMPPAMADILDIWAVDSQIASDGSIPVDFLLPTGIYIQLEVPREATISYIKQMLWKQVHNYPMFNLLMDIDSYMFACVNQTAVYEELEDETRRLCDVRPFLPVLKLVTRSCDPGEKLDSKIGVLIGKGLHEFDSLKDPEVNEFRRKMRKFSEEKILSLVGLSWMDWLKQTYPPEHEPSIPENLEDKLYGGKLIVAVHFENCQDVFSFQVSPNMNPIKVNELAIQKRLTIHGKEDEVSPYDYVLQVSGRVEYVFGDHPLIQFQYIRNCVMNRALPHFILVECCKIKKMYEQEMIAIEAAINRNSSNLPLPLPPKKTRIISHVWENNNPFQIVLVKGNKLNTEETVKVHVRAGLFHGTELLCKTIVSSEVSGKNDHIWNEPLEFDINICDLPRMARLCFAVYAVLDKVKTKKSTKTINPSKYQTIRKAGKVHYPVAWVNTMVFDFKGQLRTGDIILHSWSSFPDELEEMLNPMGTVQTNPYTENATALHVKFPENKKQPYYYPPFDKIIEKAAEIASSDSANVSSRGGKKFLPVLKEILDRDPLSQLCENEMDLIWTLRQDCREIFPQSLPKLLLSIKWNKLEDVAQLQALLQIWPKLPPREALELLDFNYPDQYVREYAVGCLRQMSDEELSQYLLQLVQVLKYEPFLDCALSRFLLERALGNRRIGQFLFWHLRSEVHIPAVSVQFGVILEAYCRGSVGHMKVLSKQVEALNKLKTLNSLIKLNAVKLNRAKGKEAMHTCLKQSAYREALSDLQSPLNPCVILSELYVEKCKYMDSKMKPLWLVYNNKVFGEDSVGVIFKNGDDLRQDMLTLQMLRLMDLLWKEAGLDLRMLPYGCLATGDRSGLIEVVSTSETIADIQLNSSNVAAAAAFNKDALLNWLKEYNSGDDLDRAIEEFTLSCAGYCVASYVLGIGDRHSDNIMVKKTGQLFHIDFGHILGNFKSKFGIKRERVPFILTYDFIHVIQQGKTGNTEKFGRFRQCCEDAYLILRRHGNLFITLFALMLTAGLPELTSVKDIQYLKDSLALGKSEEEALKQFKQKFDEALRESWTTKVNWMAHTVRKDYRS
T4 sequence (P48736 whole entry): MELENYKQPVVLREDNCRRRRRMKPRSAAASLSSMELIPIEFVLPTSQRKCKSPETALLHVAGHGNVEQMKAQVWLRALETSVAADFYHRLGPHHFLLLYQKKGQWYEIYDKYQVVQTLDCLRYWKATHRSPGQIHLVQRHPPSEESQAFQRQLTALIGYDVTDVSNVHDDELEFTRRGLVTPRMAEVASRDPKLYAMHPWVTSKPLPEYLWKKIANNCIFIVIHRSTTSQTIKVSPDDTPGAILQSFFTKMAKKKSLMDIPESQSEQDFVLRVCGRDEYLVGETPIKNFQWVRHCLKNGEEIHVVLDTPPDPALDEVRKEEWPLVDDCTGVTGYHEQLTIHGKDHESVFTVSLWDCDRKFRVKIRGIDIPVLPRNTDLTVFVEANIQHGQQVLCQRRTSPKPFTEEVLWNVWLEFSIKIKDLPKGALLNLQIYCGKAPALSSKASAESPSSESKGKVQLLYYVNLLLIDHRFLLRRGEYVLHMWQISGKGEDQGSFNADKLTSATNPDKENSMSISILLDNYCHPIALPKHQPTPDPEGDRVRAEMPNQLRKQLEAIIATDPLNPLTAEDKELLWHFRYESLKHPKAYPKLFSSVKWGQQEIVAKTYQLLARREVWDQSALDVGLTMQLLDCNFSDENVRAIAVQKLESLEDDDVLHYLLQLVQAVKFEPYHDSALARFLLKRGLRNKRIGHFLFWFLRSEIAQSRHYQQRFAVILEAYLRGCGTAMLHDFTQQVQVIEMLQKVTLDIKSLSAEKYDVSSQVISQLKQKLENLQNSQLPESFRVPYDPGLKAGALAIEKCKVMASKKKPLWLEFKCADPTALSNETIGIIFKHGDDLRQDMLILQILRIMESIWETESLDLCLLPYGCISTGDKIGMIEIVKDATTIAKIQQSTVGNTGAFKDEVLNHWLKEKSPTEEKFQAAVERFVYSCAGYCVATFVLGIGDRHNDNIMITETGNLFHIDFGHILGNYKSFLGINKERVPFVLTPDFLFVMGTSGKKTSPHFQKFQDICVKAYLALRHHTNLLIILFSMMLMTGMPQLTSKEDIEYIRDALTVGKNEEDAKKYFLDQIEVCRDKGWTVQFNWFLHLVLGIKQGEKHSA
Chain of Vps34 (Q8NEB9 whole entry, species assumed): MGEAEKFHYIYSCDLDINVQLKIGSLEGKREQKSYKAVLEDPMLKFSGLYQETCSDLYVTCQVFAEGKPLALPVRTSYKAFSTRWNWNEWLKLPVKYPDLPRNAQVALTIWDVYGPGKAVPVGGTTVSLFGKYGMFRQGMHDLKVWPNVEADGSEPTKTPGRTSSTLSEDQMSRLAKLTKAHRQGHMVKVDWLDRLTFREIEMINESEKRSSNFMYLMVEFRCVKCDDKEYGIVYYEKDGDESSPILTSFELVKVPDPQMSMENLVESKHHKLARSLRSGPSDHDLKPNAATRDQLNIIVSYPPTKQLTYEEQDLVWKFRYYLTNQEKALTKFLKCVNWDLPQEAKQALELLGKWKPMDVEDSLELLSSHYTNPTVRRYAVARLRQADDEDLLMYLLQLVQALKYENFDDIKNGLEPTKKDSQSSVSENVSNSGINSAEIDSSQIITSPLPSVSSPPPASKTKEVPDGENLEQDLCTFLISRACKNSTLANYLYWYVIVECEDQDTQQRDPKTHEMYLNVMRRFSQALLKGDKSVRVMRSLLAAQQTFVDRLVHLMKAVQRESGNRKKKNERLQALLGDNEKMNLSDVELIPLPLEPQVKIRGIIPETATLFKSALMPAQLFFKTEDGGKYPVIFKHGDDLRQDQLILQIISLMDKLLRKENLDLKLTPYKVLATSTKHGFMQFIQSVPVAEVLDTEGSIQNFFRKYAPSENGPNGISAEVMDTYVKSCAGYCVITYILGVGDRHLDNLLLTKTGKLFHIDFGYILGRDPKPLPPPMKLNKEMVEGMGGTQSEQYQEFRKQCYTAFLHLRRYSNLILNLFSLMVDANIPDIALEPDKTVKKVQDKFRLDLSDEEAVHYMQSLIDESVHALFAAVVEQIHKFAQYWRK
Chain of PI 3-kinase gamma (P48736 whole entry): as the sequence (P48736 whole entry) above
Chain of PI 3-kinase alpha (P42336 whole entry): as the sequence (P42336 whole entry) above
Chain of PI 3-kinase alpha (P27986 461-568 partner limits assumed): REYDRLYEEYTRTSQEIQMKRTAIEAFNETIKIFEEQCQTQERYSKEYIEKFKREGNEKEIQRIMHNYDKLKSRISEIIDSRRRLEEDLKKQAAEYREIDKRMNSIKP
Chain of PI 3-kinase delta (P27986 461-568 partner limits assumed, one chain of several): as the sequence (P27986 461-568 partner limits assumed) above
Procedure for Vps34: Kinase Glo Luminescent Kinase Assay (Kglo) for Pb 3-Kinase Alpha (A), Pb 3-Kinase Beta (B), Vps34 (C), Pb 4-Kinase Beta (D)
The Kinase Glo Luminescent Kinase Assay (Promega, Madison/Wis., USA) is a homogeneous HTS method of measuring kinase activity by quantifying the amount of ATP remaining in solution following a kinase reaction.
L-α-phosphatidylinositol (PI), provided as 10 mg/ml solution in methanol, was transferred into a glass tube and dried under a nitrogen beam. It was then resuspended in 3% OctylGlucoside (1-0-n-octyl-beta-D-glucopyranoside) by vortexing and stored at 4° C. 5 μL of a mix of PI/OctylGlucoside with the PI 3-kinase alpha and PI 3-kinase beta subtypes, or Vps34 or PI 4-kinase beta were added. Kinase reactions were started by the addition of 5 μl of an ATP-mix containing in a final volume 10 μL 10 mM TRIS-HCl pH 7.5, 3 mM MgCl2, 50 mM NaCl, 0.05% CHAPS, 1 mM DTT and 1 μM ATP at room temperature.
as §5
Procedure for mTOR: Lanthascreen™ Kinase Binding Assay for mTOR (G)
Binding of an inhibitor to the kinase competes for binding with the tracer, resulting in a loss of FRET.
50 nL of compound dilutions were dispensed onto white 384-well small volume polystyrene plate.

For `Cc1ccc(S(=O)(=O)NCCC(C)(C)O)cc1-c1cnc(N)c(-c2cncnc2)n1` [Example 119.20, 3-(5-amino-6-(pyrimidin-5-yl)pyrazin-2-yl)-N-(3-hydroxy-3-methylbutyl)-4-methylbenzenesulfonamide], the figures for the IC50 in data set [1], in data set [2] and in data set [3] were 7030 nM, 4.86 µM and 4950 nM, respectively.

Regarding `Cc1ccc(S(=O)(=O)NCC(C)(C)O)cc1-c1cnc(N)c(-c2nn(C)nc2C)n1` [Example 19, 3-[5-Amino-6-(2,5-dimethyl-2H-[1,2,3]triazol-4-yl)-pyrazin-2-yl]-N-(2-hydroxy-2-methyl-propyl)-4-methyl-benzenesulfonamide], inhibition against Vps34 was half-maximal at 9.4 µM (IC50).

For `Cc1ncc(-c2nc(-c3cc(S(=O)(=O)NCC4(CO)CCOCC4)ccc3C)cnc2N)s1` [Example 45.9, 3-(5-Amino-6-(2-methylthiazol-5-yl)pyrazin-2-yl)-N-((4-(hydroxymethyl)tetrahydro-2H-pyran-4-yl)methyl)-4-methylbenzenesulfonamide], the IC50 (commonly the point on the concentration scale where inhibition reaches its midpoint) on Vps34 was determined as 9.4 µM.

On to `Cc1cc(-c2nc(-c3cc(S(=O)(=O)NCC(C)(C)O)ccc3C)cnc2N)on1` [Example 88, 3-(5-Amino-6-(3-methylisoxazol-5-yl)pyrazin-2-yl)-N-(2-hydroxy-2-methylpropyl)-4-methylbenzenesulfonamide], for which the IC50 against Vps34 and on mTOR was 9.1 µM in each case.

Consider `Cc1ccc(S(=O)(=O)NCC2COCCN2C)cc1-c1cnc(N)c(-c2cn(C)nc2C)n1` (single isomer, unassigned) [Example 128.3a, (R or S)-3-(5-Amino-6-(1,3-dimethyl-1H-pyrazol-4-yl)pyrazin-2-yl)-4-methyl-N-((4-methylmorpholin-3-yl)methyl)benzenesulfonamide], for which the IC50 at PI 3-kinase gamma (TR-FRET Adapta assay, read-out: Assay E PI3Kγ IC50) was determined as 27 nM; in [4], 241 nM; on PI 3-kinase alpha it was 230 nM; on PI 3-kinase delta it was 570 nM.

Regarding `Cc1ccc(S(=O)(=O)N[C@@H]2CNC[C@H]2O)cc1-c1cnc(N)c(-n2cncn2)n1` [Example 127.60], the “Assay M RLM CI(int)” value in data set [5] came out at 20 µL/min/mg.

As to `Cc1ccc(S(=O)(=O)NCCC(C)(C)O)cc1-c1cnc(N)c(-c2cccnc2OC(C)C)n1` [Reference example 119.12, 3-(5-amino-6-(2-isopropoxypyridin-3-yl)pyrazin-2-yl)-N-(3-hydroxy-3-methylbutyl)-4-methylbenzenesulfonamide], the “activity in assay E (PI 3-kinase gamma)” value at PI 3-kinase gamma (result in words) was “not shown any activity”.

For the compound `Cc1cc(-c2nc(-c3cc(S(=O)(=O)NC4CCOCC4)ccc3C)cnc2N)ccn1` [Example 129.10], the “Assay M RLM CI(int)” value in [5] was 78 µL/min/mg. In addition, the IC50 in data set [6] is 1610 nM.

Consider `Cc1ccc(S(=O)(=O)NCC2(CO)CCOCC2)cc1-c1cnc(N)c(-n2cncn2)n1` [Example 127.50], for which the IC50 is 179 nM in data set [7] and 1070 nM in [6].

In the case of `Cc1cc(-c2nc(-c3cc(S(=O)(=O)NCCC(C)(O)C(F)(F)F)ccc3C)cnc2N)ccn1` (stereo not drawn) [Example 129.13], the IC50 in [3] amounted to 3000 nM.

On to `Cc1ccc(S(=O)(=O)N[C@@H]2CCOC2)cc1-c1cnc(N)c(-n2cncn2)n1` [Example 127.20, (R)-3-(5-amino-6-(1H-1,2,4-triazol-1-yl)pyrazin-2-yl)-4-methyl-N-(tetrahydrofuran-3-yl)benzenesulfonamide], for which, in [7], the IC50 was found to be 850 nM.

For the compound `Cc1ccc(S(=O)(=O)NC[C@](C)(O)C(F)(F)F)cc1-c1cnc(N)c(-n2cncn2)n1` [Example 127.23, (S)-3-(5-amino-6-(1H-1,2,4-triazol-1-yl)pyrazin-2-yl)-4-methyl-N-(3,3,3-trifluoro-2-hydroxy-2-methylpropyl)benzenesulfonamide], at mTOR (Lanthascreen kinase binding assay), the IC50 is 9.1 µM.

For `Cc1nc(-c2nc(-c3cc(S(=O)(=O)NCCC(C)(C)O)ccc3C)cnc2N)cs1` [Example 119.30, 3-(5-amino-6-(2-methylthiazol-4-yl)pyrazin-2-yl)-N-(3-hydroxy-3-methylbutyl)-4-methylbenzenesulfonamide], the 50% inhibitory concentration (IC50) in data set [1] amounted to 630 nM; in data set [2] it was 6.99 µM; in [3], 690 nM; in data set [7] it was 42 nM; in data set [6] it was 1140 nM. For the same compound, in data set [5], the “Assay M RLM CI(int)” value came to 77 µL/min/mg.

As to `Cc1ccc(S(=O)(=O)NCC2CCC(C)(C)O2)cc1-c1cnc(N)c(-n2cncn2)n1` (stereo in doubt) [Example 127.40, (R)-3-(5-amino-6-(1H-1,2,4-triazol-1-yl)pyrazin-2-yl)-N-((5,5-dimethyltetrahydrofuran-2-yl)methyl)-4-methylbenzenesulfonamide], the IC50 in data set [7] was 411 nM.

`Cc1ccc(S(=O)(=O)NCCC(C)(C)O)cc1-c1cnc(N)c(-c2ccnc(F)c2)n1` [Example 119.10, 3-(5-amino-6-(2-fluoropyridin-4-yl)pyrazin-2-yl)-N-(3-hydroxy-3-methylbutyl)-4-methylbenzenesulfonamide]: the IC50 in [1] was determined as 1040 nM; in [2], 2.59 µM; in data set [3], 630 nM; in data set [7], 172 nM.

As for `Cc1ncc(-c2nc(-c3cc(S(=O)(=O)NCCC(C)(C)O)ccc3C)cnc2N)o1` [Example 119.40, 3-(5-amino-6-(2-methyloxazol-5-yl)pyrazin-2-yl)-N-(3-hydroxy-3-methylbutyl)-4-methylbenzenesulfonamide], the IC50 in data set [1] worked out at 1040 nM; in [2] it was 8.16 µM; in data set [3] it was 1100 nM; in data set [4] it was 47 nM. Also, in data set [5], the “Assay M RLM CI(int)” value is 56 µL/min/mg.
